According to ChEMBL document CHEMBL1201862, “PubChem BioAssay data set” (2004):
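Exposure lasted 48 hours, with cells grown in 96-well plates and compounds tested at five concentrations. GI50: concentration for 50% inhibition of growth.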 Activity calls are given as the source filed them. No stated cut-off is given here; in the data, active = GI50 up to about 1.1 µM and inactive = higher.

Key:
Experiment in all cases: DTP human tumour cell line panel, 48 h
[1] = test system: NCI/ADR-RES
[2] = test system: UACC-257
[3] = test system: OVCAR-4
[4] = test system: SK-MEL-2
[5] = test system: HL-60
[6] = test system: EKVX
[7] = test system: NCI-H522
[8] = test system: HCT-116
[9] = test system: ACHN
[10] = test system: MDA-N
[11] = test system: UACC-62
[12] = test system: HCC 2998
[13] = test system: NCI-H226
[14] = test system: SF-295
[15] = test system: MDA-MB-231
[16] = test system: TK-10
[17] = test system: KM12
[18] = test system: SK-MEL-28
[19] = test system: A549
[20] = test system: U-251

Structure (SMILES) | GI50 [1] | GI50 [2] | GI50 [3] | GI50 [4] | GI50 [5] | GI50 [6] | GI50 [7] | GI50 [8] | GI50 [9] | GI50 [10] | GI50 [11] | GI50 [12] | GI50 [13] | GI50 [14] | GI50 [15] | GI50 [16] | GI50 [17] | GI50 [18] | GI50 [19] | GI50 [20]
COC(=O)C1=C(C)NC(CF)=C(C(=O)OC)C1c1cccc2c(=O)c3ccccc3oc12 (stereo unspecified) | 2.79 µM (inactive) | 16.5 µM (inactive) | 10.2 µM (inactive) | 20.4 µM (inactive) | 4.65 µM (inactive) | 19.1 µM (inactive) | 6.31 µM (inactive) | 5.2 µM (inactive) | 15.1 µM (inactive) | 1.92 µM (inactive) | 10.6 µM (inactive) | 6.59 µM (inactive) | > 100 µM (inactive) | 3.31 µM (inactive) | 4.74 µM (inactive) | 35.8 µM (inactive) | 5.51 µM (inactive) | 16 µM (inactive) | 9.46 µM (inactive) | 
CC1(C)CN=C(Nc2cccc(C(F)(F)F)c2)S1 | > 100 µM (inactive) | > 100 µM (inactive) | > 100 µM (inactive) | > 100 µM (inactive) | 59.3 µM (inactive) | > 100 µM (inactive) | > 100 µM (inactive) | > 100 µM (inactive) | > 100 µM (inactive) | > 100 µM (inactive) | > 100 µM (inactive) | > 100 µM (inactive) | > 100 µM (inactive) | > 100 µM (inactive) | 0.684 µM (active) | > 100 µM (inactive) | > 100 µM (inactive) | > 100 µM (inactive) | > 100 µM (inactive) | > 100 µM (inactive)
C=CCNC1=C2C[C@@H](C)C[C@@H](OC)[C@H](OC(=O)CN(C)C)[C@H](C)/C=C(\C)[C@@H](OC(N)=O)[C@H](OC)/C=C\C=C(/C)C(=O)NC(=CC1=O)C2=O | 8.22 µM (inactive) | 0.0748 µM (active) | 3.41 µM (inactive) | 0.0608 µM (active) | 0.406 µM (active) | 1.28 µM (inactive) | 0.183 µM (active) | 0.0871 µM (active) | 0.802 µM (active) | 0.0281 µM (active) | 0.0467 µM (active) | 0.0434 µM (active) |  | 0.128 µM (active) | 2.56 µM (inactive) | 0.0543 µM (active) | 0.024 µM (active) | 0.0897 µM (active) | 0.0562 µM (active) | 0.188 µM (active)
CNC(=O)N(C)/N=N/CCCl | > 100 µM (inactive) | > 100 µM (inactive) | > 100 µM (inactive) | > 100 µM (inactive) | > 100 µM (inactive) | > 100 µM (inactive) | > 100 µM (inactive) | > 100 µM (inactive) | > 100 µM (inactive) | > 100 µM (inactive) | > 100 µM (inactive) | > 100 µM (inactive) | > 100 µM (inactive) | > 100 µM (inactive) | > 100 µM (inactive) | > 100 µM (inactive) | > 100 µM (inactive) | > 100 µM (inactive) | > 100 µM (inactive) | > 100 µM (inactive)
CC(=O)c1c2c(cc3c1CC1(Cc4ccccc4C1=O)C3)CCC2 (stereo unspecified) | 14.5 µM (inactive) | 17.9 µM (inactive) | 75.2 µM (inactive) | 27.1 µM (inactive) | 5.2 µM (inactive) | 7.06 µM (inactive) | 25.5 µM (inactive) | 16.7 µM (inactive) | 21.7 µM (inactive) | 28.6 µM (inactive) |  | 27.5 µM (inactive) | 22.9 µM (inactive) | 25.2 µM (inactive) | 22.3 µM (inactive) | 20.5 µM (inactive) | 16.2 µM (inactive) | 20.9 µM (inactive) | 28.2 µM (inactive) | 24.4 µM (inactive)
O=[N+]([O-])c1cc2ccc(N(CCO)CCO)nc2nc1N(CCO)CCO | > 100 µM (inactive) | > 100 µM (inactive) | > 100 µM (inactive) | > 100 µM (inactive) | > 100 µM (inactive) | > 100 µM (inactive) | > 100 µM (inactive) | > 100 µM (inactive) | > 100 µM (inactive) | > 100 µM (inactive) | > 100 µM (inactive) | > 100 µM (inactive) | > 100 µM (inactive) | > 100 µM (inactive) | > 100 µM (inactive) | > 100 µM (inactive) | > 100 µM (inactive) | > 100 µM (inactive) | > 100 µM (inactive) | > 100 µM (inactive)
COc1ccc(C(=O)N(C(=S)OCCOc2ccccc2)c2ccccc2)cc1 | 37.2 µM (inactive) | 34.8 µM (inactive) | 24.5 µM (inactive) | 22.9 µM (inactive) | 20.2 µM (inactive) | 31.6 µM (inactive) | 23.7 µM (inactive) | 29.2 µM (inactive) | 44.9 µM (inactive) | 35.1 µM (inactive) | 48 µM (inactive) | 34.4 µM (inactive) |  | 29.2 µM (inactive) | 86.1 µM (inactive) | 61 µM (inactive) | 31.3 µM (inactive) | > 100 µM (inactive) | 31.1 µM (inactive) | 46.1 µM (inactive)
